Test results: patent publication US20250382305A1 (PTC THERAPEUTICS, INC., priority 2022, published 2025)

Columns and labels:
[1] = system: Total ATXN3 (tATXN3) protein; assay: Endogenous Total ATXN3 (tATXN3) Protein Assay (MSD immunoassay of cell lysates); type: cell-based; conditions: average IC50, total ATXN3 protein in cell lysate after 48 h with compound (Table 1)
Outline: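 By electrochemiluminescent MSD sandwich immunoassay (mouse monoclonal capture, rabbit monoclonal and SULFO-TAG anti-rabbit detection), endogenous ATXN3 was quantified in lysates of cells treated 48 h at 37° C at 10,000 cells/well. Treatment used a 7-point 3.16-fold duplicate dilution series, with average IC50 grouped into star categories.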

ATXN3 pre-mRNA = assay: RT-qPCR Assay to Quantify Exon 4 Skipping in ATXN3 pre-mRNA in Cells; type: cell-based; conditions: percent exon 4 skipping in ATXN3 pre-mRNA, RT-qPCR of cell lysates; average IC50
Outline: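 IC50 derives from a dose-response fit of percent exon 4 skipping, quantified by RT-qPCR on crude lysates. Compounds tested as 7-point 3.16-fold dilutions in duplicate; cells (10,000/well) were exposed for 24 h at 37 °C before lysis.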

| Molecule | IC50 [1] | IC50 (ATXN3 pre-mRNA) |
| --- | --- | --- |
| N[C@@H]1CC=CC[C@H]1c1sc2c(NCc3cccs3)nc(Cl)nc2c1Cl.N[C@H]1CC=CC[C@@H]1c1sc2c(NCc3cccs3)nc(Cl)nc2c1Cl (mixture of isomers) [Compound 397, 6-((1R,6R)-6-aminocyclohex-3-en-1-yl)-2,7-dichloro-N-(thiophen-2-ylmethyl)thieno[3,2-d]pyrimidin-4-amine and 6-((1S,6S)-6-aminocyclohex-3-en-1-yl)-2,7-dichloro-N-(thiophen-2-ylmethyl)thieno[3,2-d]pyrimidin-4-amine] | 300 to 1000 nM | 300 to 1000 nM |
| N[C@@H]1CCCO[C@H]1c1sc2c(NCc3ccccc3F)cc(Cl)nc2c1Br.N[C@H]1CCCO[C@@H]1c1sc2c(NCc3ccccc3F)cc(Cl)nc2c1Br (mixture of isomers) [Compound 29, 2-((2R,3R)-3-aminotetrahydro-2H-pyran-2-yl)-3-bromo-5-chloro-N-(2-fluorobenzyl)thieno[3,2-b]pyridin-7-amine and 2-((2S,3S)-3-aminotetrahydro-2H-pyran-2-yl)-3-bromo-5-chloro-N-(2-fluorobenzyl)thieno[3,2-b]pyridin-7-amine] | 30 to 300 nM | 30 to 300 nM |
| Cc1c([C@H]2CC=C(C(=O)Nc3ccccc3)C[C@@H]2N)sc2c(NCc3cccs3)cc(Cl)nc12 [Compound 353, (4S,5S)-5-amino-4-(5-chloro-3-methyl-7-((thiophen-2-ylmethyl)amino)thieno[3,2-b]pyridin-2-yl)-N-phenylcyclohex-1-ene-1-carboxamide] | 30 to 300 nM | 30 to 300 nM |
| N[C@H]1CCCO[C@@H]1c1c(Br)c2nc(Cl)nc(NCc3cccs3)c2n1C(F)F [Compound 248, 6-((2S,3S)-3-aminotetrahydro-2H-pyran-2-yl)-7-bromo-2-chloro-5-(difluoromethyl)-N-(thiophen-2-ylmethyl)-5H-pyrrolo[3,2-d]pyrimidin-4-amine] | 30 to 300 nM | 30 to 300 nM |
| N[C@@H]1CCCC[C@@H]1c1sc2c(NCc3cccs3)cc(Cl)nc2c1Br [Compound 52, 2-((1S,2R)-2-aminocyclohexyl)-3-bromo-5-chloro-N-(thiophen-2-ylmethyl)thieno[3,2-b]pyridin-7-amine] | > 1000 nM | > 1000 nM |
| 2-((1R,2R)-2-aminocyclohexyl)-5-chloro-3-(prop-1-yn-1-yl)-N-(thiophen-2-ylmethyl)thieno[3,2-b]pyridin-7-amine and 2-((1S,2S)-2-aminocyclohexyl)-5-chloro-3-(prop-1-yn-1-yl)-N-(thiophen-2-ylmethyl)thieno[3,2-b]pyridin-7-amine [Compound 189] | ≤ 30 nM | ≤ 30 nM |
| 2-((4R,5S)-5-aminoazepan-4-yl)-3-bromo-5-chloro-N-(thiophen-2-ylmethyl)thieno[3,2-b]pyridin-7-amine and 2-((4S,5S)-5-aminoazepan-4-yl)-3-bromo-5-chloro-N-(thiophen-2-ylmethyl)thieno[3,2-b]pyridin-7-amine [Compound 148] | > 1000 nM | > 1000 nM |
| C/C=C/CNc1cc(Cl)nc2c(C)c([C@H]3CC=CC[C@@H]3N)sc12 [Compound 378, 2-((1S,6S)-6-aminocyclohex-3-en-1-yl)-N-((E)-but-2-en-1-yl)-5-chloro-3-methylthieno[3,2-b]pyridin-7-amine] | 30 to 300 nM | 30 to 300 nM |
| 2-((1R,6R)-6-aminocyclohex-3-en-1-yl-2,2,3,4,5,5-d6)-N-benzyl-5-chloro-3-methylthieno[3,2-b]pyridin-7-amine and 2-((1S,6S)-6-aminocyclohex-3-en-1-yl-2,2,3,4,5,5-d6)-N-benzyl-5-chloro-3-methylthieno[3,2-b]pyridin-7-amine [Compound 278] | 30 to 300 nM | 30 to 300 nM |

Results, then the molecule that gave them:

| IC50 [1] | IC50 (ATXN3 pre-mRNA) | Molecule |
| --- | --- | --- |
| 30 to 300 nM | 30 to 300 nM | N[C@@H]1COCC[C@H]1c1sc2c(NCc3nccs3)cc(Cl)nc2c1I [Compound 408, 2-((3S,4R)-3-aminotetrahydro-2H-pyran-4-yl)-5-chloro-3-iodo-N-(thiazol-2-ylmethyl)thieno[3,2-b]pyridin-7-amine] |
| > 1000 nM | 300 to 1000 nM | Cc1c([C@@H]2CC=CC[C@H]2N)sc2c(NCc3ccncc3)nc(Cl)nc12 [Compound 436, 6-((1R,6R)-6-aminocyclohex-3-en-1-yl)-2-chloro-7-methyl-N-(pyridin-4-ylmethyl)thieno[3,2-d]pyrimidin-4-amine] |
| 30 to 300 nM | ≤ 30 nM | N[C@H]1CCCO[C@@H]1c1c(Cl)c2nc(Cl)cc(NCc3ccco3)c2n1C(F)F [Compound 273, 2-((2S,3S)-3-aminotetrahydro-2H-pyran-2-yl)-3,5-dichloro-1-(difluoromethyl)-N-(furan-2-ylmethyl)-1H-pyrrolo[3,2-b]pyridin-7-amine] |
| 30 to 300 nM | 30 to 300 nM | N[C@H]1CCCC[C@@H]1c1c(I)c2nc(Cl)nc(NCc3ccco3)c2n1C(F)F [Compound 304, 6-((1S,2S)-2-aminocyclohexyl)-2-chloro-5-(difluoromethyl)-N-(furan-2-ylmethyl)-7-iodo-5H-pyrrolo[3,2-d]pyrimidin-4-amine] |
| > 1000 nM | > 1000 nM | Cc1c([C@@H]2OCCC[C@H]2N)sc2c(NCc3cccs3)cc(Cl)nc12 (single isomer, unassigned) [Compound 44, 2-((2R,3R)-3-aminotetrahydro-2H-pyran-2-yl)-5-chloro-3-methyl-N-(thiophen-2-ylmethyl)thieno[3,2-b]pyridin-7-amine or 2-((2S,3S)-3-aminotetrahydro-2H-pyran-2-yl)-5-chloro-3-methyl-N-(thiophen-2-ylmethyl)thieno[3,2-b]pyridin-7-amine] |
| 30 to 300 nM | 30 to 300 nM | CC#CCNc1cc(Cl)nc2c(Br)c([C@H]3CCCC[C@@H]3N)sc12 [Compound 301, 2-((1S,2S)-2-aminocyclohexyl)-3-bromo-N-(but-2-yn-1-yl)-5-chlorothieno[3,2-b]pyridin-7-amine] |
| 300 to 1000 nM | 300 to 1000 nM | N[C@H]1CCC[C@@H]1c1cc2nc(Cl)cc(NCc3cccs3)c2s1 [Compound 10, 2-((1S,2S)-2-aminocyclopentyl)-5-chloro-N-(thiophen-2-ylmethyl)thieno[3,2-b]pyridin-7-amine] |
| 30 to 300 nM | 30 to 300 nM | N[C@H]1CCCO[C@@H]1c1c(I)c2nc(Cl)nc(NCc3cccs3)c2n1C(F)F [Compound 254, 6-((2S,3S)-3-aminotetrahydro-2H-pyran-2-yl)-2-chloro-5-(difluoromethyl)-7-iodo-N-(thiophen-2-ylmethyl)-5H-pyrrolo[3,2-d]pyrimidin-4-amine] |
| 300 to 1000 nM | 300 to 1000 nM | N[C@@H]1CC=CC[C@H]1c1sc2c(NCc3ccncc3F)nc(Cl)nc2c1Cl [Compound 439, 6-((1R,6R)-6-aminocyclohex-3-en-1-yl)-2,7-dichloro-N-((3-fluoropyridin-4-yl)methyl)thieno[3,2-d]pyrimidin-4-amine] |
| 30 to 300 nM | 30 to 300 nM | N[C@@H]1CCCO[C@H]1c1c(I)c2nc(Cl)nc(NCc3ccco3)c2n1C(F)F [Compound 422, 6-((2R,3R)-3-aminotetrahydro-2H-pyran-2-yl)-2-chloro-5-(difluoromethyl)-N-(furan-2-ylmethyl)-7-iodo-5H-pyrrolo[3,2-d]pyrimidin-4-amine] |
